For test [1], the target named is T1, DNA topoisomerase I (Bos taurus) (UniProt F1MN93).
T1 sequence (whole entry): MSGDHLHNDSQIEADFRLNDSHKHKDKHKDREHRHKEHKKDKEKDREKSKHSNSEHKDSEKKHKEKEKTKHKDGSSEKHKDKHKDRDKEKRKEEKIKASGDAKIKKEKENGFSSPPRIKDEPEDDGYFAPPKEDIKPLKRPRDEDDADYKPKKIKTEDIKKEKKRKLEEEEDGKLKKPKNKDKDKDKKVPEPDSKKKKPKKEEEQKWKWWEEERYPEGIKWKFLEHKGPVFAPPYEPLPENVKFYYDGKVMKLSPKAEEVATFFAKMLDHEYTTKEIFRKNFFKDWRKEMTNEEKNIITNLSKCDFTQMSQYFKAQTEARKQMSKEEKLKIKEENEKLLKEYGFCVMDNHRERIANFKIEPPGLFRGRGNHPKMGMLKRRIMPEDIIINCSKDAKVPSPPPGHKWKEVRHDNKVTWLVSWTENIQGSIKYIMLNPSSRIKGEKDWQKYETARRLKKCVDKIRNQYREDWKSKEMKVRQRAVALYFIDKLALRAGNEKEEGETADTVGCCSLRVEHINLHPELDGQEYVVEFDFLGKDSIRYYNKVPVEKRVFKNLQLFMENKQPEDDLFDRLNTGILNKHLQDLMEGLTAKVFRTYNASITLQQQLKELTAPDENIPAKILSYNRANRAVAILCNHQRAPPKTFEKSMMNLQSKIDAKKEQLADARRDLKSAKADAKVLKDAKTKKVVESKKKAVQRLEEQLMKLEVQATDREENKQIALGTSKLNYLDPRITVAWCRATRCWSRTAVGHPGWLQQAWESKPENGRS
Nature of the test: Inhibition of calf thymus DNA topoisomerase 1 assessed as reduction in enzyme-mediated relaxation of supercoiled pBR322 plasmid DNA at 10 uM after 30 mins by agarose gel electrophoresis.

Test [2] has as its target T1, DNA topoisomerase I (Bos taurus). Nature of the test: Inhibition of calf thymus DNA topoisomerase 1 assessed as reduction in enzyme-mediated relaxation of supercoiled pBR322 plasmid DNA at 10 uM after 30 mins by ethidium bromide staining-based agarose gel electrophoresis.
A further test concerns MCF7. Nature of the test: Antiproliferative activity against human MCF7 cells after 48 hrs by SRB assay. It is filed as functional. Conditions: MCF7, 48 h, read-out: GI50.
Another test relates to U-251. Nature of the test: Antiproliferative activity against human U251 cells after 48 hrs by SRB assay. It is filed as functional. As to conditions: U-251, 48 h, read-out: GI50.
A further test deals with HCT-116. Nature of the test: Antiproliferative activity against human HCT116 cells after 48 hrs by SRB assay. The test is classed as functional. Conditions: HCT-116, 48 h, read-out: GI50.
A further test concerns NCI-H522. Nature of the test: Antiproliferative activity against human NCI-H522 cells after 48 hrs by SRB assay. As to conditions: NCI-H522, 48 h, read-out: GI50. It is filed as functional.
The subject of a further test is LOX IMVI. Nature of the test: Antiproliferative activity against human LOXIMVI cells after 48 hrs by SRB assay. The test is classed as functional. As to conditions: read-out: GI50.
The test system of a further test is SK-OV-3. Nature of the test: Antiproliferative activity against human SKOV3 cells after 48 hrs by SRB assay. The test is classed as functional. Conditions: SK-OV-3, 48 h, read-out: GI50.
Another test concerns ACHN. Nature of the test: Antiproliferative activity against human ACHN cells after 48 hrs by SRB assay. The test is classed as functional. As to conditions: read-out: GI50.
In the next test the test system is MKN-28. Nature of the test: Antiproliferative activity against human MKN28 cells after 48 hrs by SRB assay. It is filed as functional. Conditions: MKN-28, 48 h, read-out: GI50.
The test system of another test is DU-145. Nature of the test: Antiproliferative activity against human DU145 cells after 48 hrs by SRB assay. It is filed as functional. As to conditions: DU-145, 48 h, read-out: GI50.
For the next test, the system named is Colon 26. Nature of the test: Antitumor activity against mouse Colon 26 cells implanted in BALB/c mouse at 50 mg/kg, iv administered every 2 days for 7 times starting 1 day after tumor implantation and measured daily until day 20. The test is classed as functional, organism-based.

The source made the active and inactive calls. The calls are words filed in the database; no cut-off is given here. Some results are limits rather than exact numbers.

Turning to `CC[C@@]1(O)C(=O)OCc2c1cc1n(c2=O)Cc2cc3ccccc3nc2-1`, the inhibition entry in [1] and in test [2] was “Active” each time.
As for `COc1cc2c(cc1O)oc(=O)c1c2c(C=O)c2c3cc(OC)c(O)cc3ccn21`, the GI50 in the test on MCF7 was 37 nM; in the test with U-251, 29 nM; in the test with HCT-116, 78 nM; in the test with NCI-H522, 21 nM; in the test on LOX IMVI, 35 nM; in the test on SK-OV-3, 230 nM. Moreover, the values for the GI50 in the test on ACHN, in the test on MKN-28 and with DU-145 were 26 nM, 230 nM and 28 nM, respectively.
Take `COc1cc(-c2c3c4cc(OC)c(O)cc4oc(=O)c3n3ccc4cc(O)c(OC)cc4c23)ccc1O` [LAMELLARIN D]: the inhibition entry in [1] and in test [2] was “Active” in each case. For the same molecule, the 50% growth inhibitory concentration (GI50) with MCF7 is under 10 nM; with U-251, under 10 nM; with HCT-116 it was under 10 nM; in the test on NCI-H522 it was under 10 nM; with LOX IMVI it was under 10 nM; in the test with SK-OV-3, 38 nM. Besides, the GI50 in the test with ACHN was under 10 nM; in the test with MKN-28, 50 nM; in the test on DU-145, under 10 nM.
For `COc1cc2c(cc1O)oc(=O)c1c2c(C)c2c3cc(OC)c(O)cc3ccn21`, the GI50 in the test on MCF7 worked out at 110 nM; with U-251, 9.1 nM; with HCT-116, 33 nM; with NCI-H522, 4.7 nM; with LOX IMVI, 5.5 nM; in the test with SK-OV-3, 38 nM. For the same molecule, the GI50 in the test on ACHN turned out to be 3.8 nM; in the test with MKN-28, 64 nM; with DU-145, 4.7 nM.
Turning to `CCc1c2c(nc3ccc(O)cc13)-c1cc3c(c(=O)n1C2)COC(=O)[C@]3(O)CC` [7-ETHYL-10-HYDROXYCAMPTOTHECIN], the GI50 was 3 nM in the test on MCF7; 2.8 nM with U-251; 23 nM in the test with HCT-116; 3.7 nM in the test with NCI-H522; 5.3 nM in the test with LOX IMVI; 23 nM in the test on SK-OV-3. Also, the figures for the GI50 in the test on ACHN, in the test on MKN-28 and with DU-145 were 5.9 nM, 110 nM and 4.3 nM, respectively.
Regarding `COc1cc2c(cc1O)oc(=O)c1c2c(CN(C)C)c2c3cc(OC)c(O)cc3ccn21`, the GI50 was 55 nM with MCF7; 100 nM in the test on U-251; 310 nM with HCT-116; 82 nM with NCI-H522; 180 nM in the test with LOX IMVI; 1600 nM with SK-OV-3. Besides, the GI50 turned out to be 44 nM in the test with ACHN, 2300 nM in the test with MKN-28 and 110 nM in the test with DU-145.
With `COc1cc2c(cc1O)oc(=O)c1c2c(F)c2c3cc(OC)c(O)cc3ccn21`, the GI50 with MCF7 was 110 nM; in the test with U-251 it was 71 nM; in the test on HCT-116, 120 nM; in the test on NCI-H522, under 10 nM; in the test with LOX IMVI, 24 nM; in the test on SK-OV-3, 470 nM. For the same molecule, the GI50 with ACHN was determined as 28 nM; with MKN-28 it was 360 nM; in the test with DU-145, 24 nM.
Regarding `C#CCn1c2c3cc(OC)c(O)cc3ccc2c2c(=O)oc3cc(O)c(OC)cc3c21`, the GI50 in the test on MCF7 was 18 nM; with U-251, under 10 nM; in the test with HCT-116, 34 nM; in the test with NCI-H522, under 10 nM; in the test on LOX IMVI, under 10 nM; in the test on SK-OV-3, 56 nM. Moreover, the GI50 was under 10 nM in the test with ACHN, 66 nM in the test on MKN-28 and 27 nM in the test on DU-145.
Regarding `COc1cc2c(cc1O)oc(=O)c1c2c(Cl)c2c3cc(OC)c(O)cc3ccn21`, the GI50 with MCF7 is 13 nM; in the test with U-251 it was under 10 nM; in the test with HCT-116, 37 nM; in the test with NCI-H522 it was under 10 nM; in the test on LOX IMVI, under 10 nM; with SK-OV-3, 250 nM. For the same molecule, the 50% growth inhibitory concentration (GI50) in the test on ACHN was under 10 nM; in the test with MKN-28 it was 130 nM; in the test with DU-145 it was under 10 nM.
Turning to `CCn1c2c3cc(OC)c(O)cc3ccc2c2c(=O)oc3cc(O)c(OC)cc3c21`, the GI50 in the test on MCF7, in the test with U-251, with HCT-116, in the test on NCI-H522, with LOX IMVI and in the test with SK-OV-3 was under 10 nM throughout. Besides, the GI50 with ACHN, with MKN-28 and in the test on DU-145 was under 10 nM in each case.
Regarding `COc1cc2c(cc1O)oc(=O)c1c2cc2c3cc(OC)c(O)cc3ccn21`, the GI50 in the test with MCF7 was 76 nM; with U-251, 27 nM; in the test with HCT-116, 33 nM; in the test with NCI-H522, under 10 nM; in the test on LOX IMVI it was 20 nM; with SK-OV-3, 83 nM. The GI50 was 14 nM in the test on ACHN, 84 nM in the test on MKN-28 and 20 nM in the test on DU-145.
For `COc1cc2c(ccc3c2[nH]c2c4cc(OC)c(O)cc4oc(=O)c32)cc1O`, the inhibition entry in [1] and in [2] was “Active” in each case. In addition, the GI50 is 68 nM in the test with MCF7; under 10 nM in the test on U-251; 88 nM with HCT-116; under 10 nM in the test with NCI-H522; 21 nM in the test on LOX IMVI; 330 nM in the test with SK-OV-3. The GI50 is 110 nM with ACHN, 1600 nM in the test with MKN-28 and 51 nM with DU-145.
On to `C=CCn1c2c3cc(OC)c(O)cc3ccc2c2c(=O)oc3cc(O)c(OC)cc3c21`, for which the 50% growth inhibitory concentration (GI50) is 14 nM in the test on MCF7; 7.6 nM in the test with U-251; 25 nM in the test on HCT-116; 9.5 nM with NCI-H522; 6.4 nM with LOX IMVI; 29 nM with SK-OV-3. The GI50 with ACHN was 4.2 nM; in the test with MKN-28, 82 nM; in the test with DU-145, 6.5 nM.
With `CCc1c2c(nc3ccc(OC(=O)N4CCC(N5CCCCC5)CC4)cc13)-c1cc3c(c(=O)n1C2)COC(=O)[C@]3(O)CC`, in the test with Colon 26, the outcome was Active.
On to `COc1cc2c(cc1O)oc(=O)c1c2c(Br)c2c3cc(OC)c(O)cc3ccn21`, for which the GI50 amounted to 41 nM in the test on MCF7; 29 nM in the test on U-251; 67 nM in the test on HCT-116; 14 nM with NCI-H522; 25 nM in the test on LOX IMVI; 500 nM in the test with SK-OV-3. Moreover, the GI50 in the test on ACHN worked out at 15 nM; with MKN-28 it was 560 nM; with DU-145, 28 nM.
As to `COc1cc2c(ccc3c4c(=O)oc5cc(O)c(OC)cc5c4n(CCN(C)C)c23)cc1O`, the inhibition entry in [1] and in test [2] was “Active” throughout. Moreover, the GI50 came out at 2.6 nM in the test with MCF7; 4 nM with U-251; 9.7 nM in the test on HCT-116; 3.9 nM in the test on NCI-H522; 2.7 nM with LOX IMVI; 26 nM in the test with SK-OV-3. In addition, the GI50 in the test on ACHN amounted to 1.9 nM; with MKN-28, 67 nM; in the test with DU-145 it was 2 nM.

(Values after ChEMBL document CHEMBL4308908, “Lamellarin-inspired potent topoisomerase I inhibitors with the unprecedented benzo[g][1]benzopyrano[4,3-b]indol-6(13H)-one scaffold” (Bioorg Med Chem, 2019).)
